Values after ≈ are worked out from the molar mass of the structure shown. Where two headings read alike, the source gives them in different places. *1 amine or outer side, *2 acyl side, *3 side chain or, on linkers, in order; H or OH if unused. Where a SMILES comes first, the peptide text is derived from it. Bridges are numbered along the chain shown (N, C = ends). [ ]: non-standard residue; d: D form. The star is where a group is joined. ξ: configuration not given here. NH(1,3-benzodioxol-5-yl) = c1cc2c(cc1N*)OCO2; Phe(3,5-F2) = N[C@@H](Cc1cc(F)cc(F)c1)C(=O)O; Pro(4R-Me) = C[C@H]1CN[C@H](C(=O)O)C1; X11 = O=C(C1C[C@@H](F)CN1[*:1])[*:2]; X10 = O=C(C1C[C@H](F)CN1[*:1])[*:2]; X9 = CC1(C)CC(C(=O)[*:2])N([*:1])C1; NMeT = CN[C@H](C(=O)O)[C@@H](C)O; NH(4-Me-phenyl) = Cc1ccc(N*)cc1; aThr = C[C@H](O)[C@H](N)C(=O)O; Pip = O=C(O)[C@@H]1CCCCN1; ξPip = O=C(O)C1CCCCN1; CO = O=C([*:1])[*:2]; ξP = O=C(O)C1CCCN1

The results in this text go back to US10457707B2, “Substituted urea depsipeptide analogs as activators of the CLPP endopeptidase” (priority 2015, dated 2019).

Holding throughout (assay type): cell-based
The test system of test [1] is Streptococcus pneumoniae, R6. The test is described as follows: Minimal inhibitory concentration assay. The note with it: read-out: Minimal Inhibitory Concentrations S. pneumoniae R6. How it is done: It is understood, that in various aspects, the MIC is determined by a microbroth dilution method. […] In a still further aspect, the MIC is determined by a microbroth dilution method using Staphylococcus aureus, NRS70. […] In an even further aspect, the MIC is determined by a microbroth dilution method using Streptococcus pneumoniae, DAW27. […] In an even further aspect, the MIC is determined using Staphylococcus aureus, USA 300. In a still further aspect, the MIC is determined using Streptococcus pneumoniae, R6. In a further aspect, the MIC is determined using Staphylococcus aureus, USA 300 and compared to the MIC determined using Staphylococcus aureus, USA 300 wherein ClpP is inactivated, thus allowing confirmation that killing is via a ClpP-dependent pathway.
Two fold serial dilutions of test compound in 100 μL of the appropriate broth media were first prepared in 96-well round bottom microtiter plates (Nalgene Nunc International, Rochester, N.Y., USA). […] The plates were then incubated aerobically at 37° C. All strains were incubated overnight. After incubations, in all cases the MIC was recorded as the lowest concentration of drug that prevented bacterial growth. The bacterial strains for which MIC was determined as described in Table 4.

Test [2] has as its system Staphylococcus aureus, USA 300. The test is described as follows: Minimal inhibitory concentration assay. Conditions: USA300, read-out: Minimal Inhibitory Concentrations S. aureus USA 300. How it is done:
(§1) It is understood, that in various aspects, the MIC is determined by a microbroth dilution method. In a further aspect, the MIC is determined by a microbroth dilution method using Staphylococcus aureus, ATCC 29213. In a still further aspect, the MIC is determined by a microbroth dilution method using Staphylococcus aureus, NRS70. In a yet further aspect, the MIC is determined by a microbroth dilution method using Streptococcus pyogenes, ATCC 700294. In an even further aspect, the MIC is determined by a microbroth dilution method using Streptococcus pneumoniae, DAW27. In a still further aspect, the MIC is determined by a microbroth dilution method using Bacillus subtilis, ATCC 23857. In a yet further aspect, the MIC is determined by a microbroth dilution method using Enterococcus faecalis, ATCC 33186. In an even further aspect, the MIC is determined using Staphylococcus aureus, USA 300. In a still further aspect, the MIC is determined using Streptococcus pneumoniae, R6. In a further aspect, the MIC is determined using Staphylococcus aureus, USA 300 and compared to the MIC determined using Staphylococcus aureus, USA 300 wherein ClpP is inactivated, thus allowing confirmation that killing is via a ClpP-dependent pathway.
(§2) Minimal inhibitory concentrations (“MICs”) were determined using the microbroth dilution method according to Clinical Laboratory Standards Institute (CLSI; National, C.F. C. L. S., Methods for Dilution Antimicrobial Susceptibility Tests for Bacteria Grow aerobically-Seventh Edition: Approved Standard M7-A7, CLSI, Wayne, Pa., USA, 2008) and were read by visual inspection. Two fold serial dilutions of test compound in 100 μL of the appropriate broth media were first prepared in 96-well round bottom microtiter plates (Nalgene Nunc International, Rochester, N.Y., USA). An equivalent volume (100 μL) of bacterial broth inocula containing approximately 10^5 bacterial cfu/mL was added to each well to give final concentrations of test compound starting at 200 μM. The plates were then incubated aerobically at 37° C. All strains were incubated overnight. After incubations, in all cases the MIC was recorded as the lowest concentration of drug that prevented bacterial growth. The bacterial strains for which MIC was determined as described in Table 4.

Test [3] relates to Staphylococcus aureus, USA 300 wherein ClpP is inactivated. The test is described as follows: Minimal inhibitory concentration assay. As to the method:
as §1, §2

In test [4] the test system is Staphylococcus aureus, NRS70. The test is described as follows: Minimal inhibitory concentration assay (microbroth dilution). How it is done: as §1, §2
For orientation: Broth dilution looks for growth in wells or tubes with falling amounts of substance.

The subject of test [5] is Staphylococcus aureus, ATCC 29213. The test is described as above. Conditions: ATCC29213, read-out: Minimal Inhibitory Concentrations S. aureus ATCC 29213. As to the method:
as §1, §2

Test [6] concerns Bacillus subtilis, ATCC 23857. Described as above. How it is done: as §1, §2
For test [7], the system named is Streptococcus pyogenes, ATCC 700294. The test is described as above. How it is done:
as §1
Minimal inhibitory concentrations (“MICs”) were determined using the microbroth dilution method according to Clinical Laboratory Standards Institute (CLSI; National, C.F. C. L. S., Methods for Dilution Antimicrobial Susceptibility Tests for Bacteria Grow aerobically-Seventh Edition: Approved Standard M7-A7, CLSI, Wayne, Pa., USA, 2008) and were read by visual inspection. Two fold serial dilutions of test compound in 100 μL of the appropriate broth media were first prepared in 96-well round bottom microtiter plates (Nalgene Nunc International, Rochester, N.Y., USA). […] The plates were then incubated aerobically at 37° C. All strains were incubated overnight. After incubations, in all cases the MIC was recorded as the lowest concentration of drug that prevented bacterial growth. The bacterial strains for which MIC was determined as described in Table 4.

Where [8] appears, read: Staphylococcus aureus, NRS70, read-out: Minimal Inhibitory Concentrations S. aureus NRS70.
Setting [9] is: Bacillus subtilis, ATCC23857, read-out: Minimal Inhibitory Concentrations B. subtilis ATCC 23857.
Setting [10] is: Streptococcus pyogenes, ATCC700294, read-out: Minimal Inhibitory Concentrations S. pyogenes ATCC 700294.
Setting [11] is: Staphylococcus aureus, NRS70; read-out: Minimal Inhibitory Concentrations S. aureus NRS70.
Setting [12] is: Bacillus subtilis, ATCC23857; read-out: Minimal Inhibitory Concentrations B. subtilis ATCC 23857.
Setting [13] is: Streptococcus pyogenes, ATCC700294; read-out: Minimal Inhibitory Concentrations S. pyogenes ATCC 700294.

Take `Cc1ccc(NC(=O)N[C@@H](Cc2cc(F)cc(F)c2)C(=O)N[C@H]2COC(=O)C3C[C@H](C)CN3C(=O)[C@H](C)NC(=O)C3CCCCN3C(=O)C3CCCN3C2=O)cc1C` (stereo partly drawn) [Compound 48, (S)-3-(3,5-difluorophenyl)-N-((2S,6S,8aS,14aS,20S,23aS)-2,6-dimethyl-5,8,14,19,23-pentaoxooctadecahydro-1H,5H,14H,19H-pyrido[2,1-i]dipyrrolo[2,1-c:2′,1′-l][1]oxa[4,7,10,13]tetraazacyclohexadecin-20-yl)-2-(3-(3,4-dimethylphenyl)ureido)propanamide]: the MIC in test [1] amounted to 0.8 µM (≈ 0.646 µg/mL); in test [2] it was 1.6 µM (≈ 1.29 µg/mL); in test [4] (setting [8]), 0.4 µM (≈ 0.323 µg/mL); in test [5] it was 1.6 µM (≈ 1.29 µg/mL); in test [6] (setting [9]) it was 0.2 µM (≈ 0.162 µg/mL); in test [7] (setting [10]) it was 3.1 µM (≈ 2.5 µg/mL). Further, the “Minimal Inhibitory Concentrations S. aureus USA 300 ΔClpP” value in test [3] turned out to be 200 µM.

`Cc1ccc(NC(=O)N[C@@H](Cc2cc(F)cc(F)c2)C(=O)N[C@H]2COC(=O)C3CC(C)(C)CN3C(=O)[C@H](C)NC(=O)C3CCCCN3C(=O)C3CCCN3C2=O)cc1` (stereo partly drawn) [Compound 49, (S)-3-(3,5-difluorophenyl)-2-(3-(p-tolyl)ureido)-N-((6S,8aS,14aS,20S,23aS)-2,2,6-trimethyl-5,8,14,19,23-pentaoxooctadecahydro-1H,5H,14H,19H-pyrido[2,1-i]dipyrrolo[2,1-c:2′,1′-l][1]oxa[4,7,10,13]tetraazacyclohexadecin-20-yl)propanamide] ({NH(4-Me-phenyl)-CO}-[Phe(3,5-F2)]S[ξP][ξPip]A[X9]; ester 2-C): the MIC in test [1] amounted to 6.3 µM (≈ 5.09 µg/mL); in test [2] it was 25 µM (≈ 20.2 µg/mL); in test [4] (setting [8]), 12.5 µM (≈ 10.1 µg/mL); in test [5], 12.5 µM (≈ 10.1 µg/mL); in test [6] (setting [9]) it was 0.4 µM (≈ 0.323 µg/mL); in test [7] (setting [10]) it was 25 µM (≈ 20.2 µg/mL). Further, the “Minimal Inhibitory Concentrations S. aureus USA 300 ΔClpP” value in test [3] was determined as 100 µM.

Consider `Cc1ccc(NC(=O)N[C@@H](Cc2cc(F)cc(F)c2)C(=O)N[C@H]2COC(=O)C3C[C@H](F)CN3C(=O)[C@H](C)NC(=O)C3CCCCN3C(=O)C3CCCN3C2=O)cc1` (stereo partly drawn) [Compound 50, (S)-3-(3,5-difluorophenyl)-N-((2S,6S,8aS,14aS,20S,23aS)-2-fluoro-6-methyl-5,8,14,19,23-pentaoxooctadecahydro-1H,5H,14H,19H-pyrido[2,1-i]dipyrrolo[2,1-c:2′,1′-l][1]oxa[4,7,10,13]tetraazacyclohexadecin-20-yl)-2-(3-(p-tolyl)ureido)propanamide] ({NH(4-Me-phenyl)-CO}-[Phe(3,5-F2)]S[ξP][ξPip]A[X10]; ester 2-C), for which the MIC in test [1] was 0.8 µM (≈ 0.638 µg/mL); in test [2] it was 3.1 µM (≈ 2.47 µg/mL); in test [4] (setting [8]), 1.6 µM (≈ 1.28 µg/mL); in test [5], 3.1 µM (≈ 2.47 µg/mL); in test [6] (setting [9]), over 200 µM; in test [7] (setting [10]), 1.6 µM (≈ 1.28 µg/mL). The “Minimal Inhibitory Concentrations S. aureus USA 300 ΔClpP” value in test [3] was over 200 µM.

As to `Cc1ccc(NC(=O)N[C@@H](Cc2cc(F)cc(F)c2)C(=O)N[C@H]2COC(=O)C3C[C@@H](F)CN3C(=O)[C@H](C)NC(=O)C3CCCCN3C(=O)C3CCCN3C2=O)cc1` (stereo partly drawn) [Compound 51, (S)-3-(3,5-difluorophenyl)-N-((2R,6S,8aS,14aS,20S,23aS)-2-fluoro-6-methyl-5,8,14,19,23-pentaoxooctadecahydro-1H,5H,14H,19H-pyrido[2,1-i]dipyrrolo[2,1-c:2′,1′-l][1]oxa[4,7,10,13]tetraazacyclohexadecin-20-yl)-2-(3-(p-tolyl)ureido)propanamide] ({NH(4-Me-phenyl)-CO}-[Phe(3,5-F2)]S[ξP][ξPip]A[X11]; ester 2-C), the MIC was 6.3 µM (≈ 5.03 µg/mL) in test [1]; 12.5 µM (≈ 9.97 µg/mL) in test [2]; 6.3 µM (≈ 5.03 µg/mL) in test [4] (setting [8]); 12.5 µM (≈ 9.97 µg/mL) in test [5]; over 200 µM in test [6] (setting [9]); 12.5 µM (≈ 9.97 µg/mL) in test [7] (setting [10]). The “Minimal Inhibitory Concentrations S. aureus USA 300 ΔClpP” value in test [3] is over 200 µM.

In the case of `C[C@@H]1C[C@H]2C(=O)O[C@@H](C)[C@H](NC(=O)[C@H](Cc3cc(F)cc(F)c3)NC(=O)Nc3ccc4c(c3)OCO4)C(=O)N3CCC[C@H]3C(=O)N(C)[C@@H]([C@@H](C)O)C(=O)N[C@@H](C)C(=O)N2C1` [Compound 197, (S)-2-(3-(benzo[d][1,3]dioxol-5-yl)ureido)-3-(3,5-difluorophenyl)-N-((2R,6S,9S,11aS,17S,18S,20aS)-9-((R)-1-hydroxyethyl)-2,6,10,18-tetramethyl-5,8,11,16,20-pentaoxohexadecahydro-1H,5H,16H-dipyrrolo[2,1-c:2′,1′-l][1]oxa[4,7,10,13]tetraazacyclohexadecin-17-yl)propanamide] ({NH(1,3-benzodioxol-5-yl)-CO}-[Phe(3,5-F2)][aThr]P[NMeT]A[Pro(4R-Me)]; ester 2-C), the MIC in test [1] is under 0.02 µM; in test [2] it was 0.078 µM (≈ 0.0657 µg/mL); in test [4] (setting [11]) it was 0.039 µM (≈ 0.0328 µg/mL); in test [5] it was 0.039 µM (≈ 0.0328 µg/mL); in test [6] (setting [12]), under 0.02 µM; in test [7] (setting [13]), 0.039 µM (≈ 0.0328 µg/mL). Further, the “Minimal Inhibitory Concentrations S. aureus USA 300 ΔClpP” value in test [3] was over 20 µM.

Turning to `C[C@@H]1C[C@H]2C(=O)O[C@@H](C)[C@H](NC(=O)[C@H](Cc3cc(F)cc(F)c3)NC(=O)Nc3ccc4c(c3)OCO4)C(=O)N3CCC[C@H]3C(=O)N3CCCC[C@H]3C(=O)N[C@@H](C)C(=O)N2C1` [Compound 198, (S)-2-(3-(benzo[d][1,3]dioxol-5-yl)ureido)-3-(3,5-difluorophenyl)-N-((2R,6S,8aS,14aS,20S,21S,23aS)-2,6,21-trimethyl-5,8,14,19,23-pentaoxooctadecahydro-1H,5H,14H,19H-pyrido[2,1-i]dipyrrolo[2,1-c:2′,1′-l][1]oxa[4,7,10,13]tetraazacyclohexadecin-20-yl)propanamide] ({NH(1,3-benzodioxol-5-yl)-CO}-[Phe(3,5-F2)][aThr]P[Pip]A[Pro(4R-Me)]; ester 2-C), the MIC was under 0.02 µM in test [1]; 0.039 µM (≈ 0.0327 µg/mL) in test [2]; under 0.02 µM in test [4] (setting [11]); 0.039 µM (≈ 0.0327 µg/mL) in test [5]; under 0.02 µM in test [6] (setting [12]); 0.039 µM (≈ 0.0327 µg/mL) in test [7] (setting [13]). Further, in test [3], the “Minimal Inhibitory Concentrations S. aureus USA 300 ΔClpP” value was over 20 µM.
